Assay results reported in patent publication US20260092071A1, “COMPOUNDS AND COMPOSITIONS AS SMARCA2/4 DEGRADERS AND USES THEREOF” (REGENTS OF THE UNIVERSITY OF MICHIGAN, priority 2022, published 2026).
Read-outs that look alike come from different tables or passages of the source.

Columns and labels:
[1] = test system: SMARCA4-deficient cancer cell lines; conditions: pharmacological studies; cited from earlier work
[2] = molecular target: SMARCA4 (Homo sapiens, UniProt P51532); assay: HiBiT assay for protein degradation, Hela SMARCA4-HiBiT cells (A series); format: cell-based; parameters: fuse HiBiT to the carboxy terminus of SMARCA2 (Promega CS302365) or SMARCA4 (Promega CS3023225); host or cells: HeLa (CRISPR/Cas9 HiBiT knock-in); conditions: Hela SMARCA4-HiBiT cells, 24 hours treatment; for DC50: read-out: SMARC A4 Hela HiBit DC50
Summary of the method: (§1)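 HeLa cells engineered by CRISPR/Cas9 to carry a HiBiT tag fused to the C-terminus of SMARCA4 (Promega CS3023225) were grown in DMEM supplemented with FBS and penicillin-streptomycin. After compound exposure, remaining SMARCA4 protein was quantified using the Nano-Glo® HiBiT Lytic Detection Assay (Promega N3050), and curves were fitted in GraphPad Prism.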

[3] = molecular target: SMARCA2 (Homo sapiens, UniProt P51531); assay: HiBiT assay for protein degradation, Hela SMARCA2-HiBiT cells (A series); format: cell-based; parameters: Hela cells were genetically modified via CRISPR/Cas9 to fuse HiBiT to the carboxy terminus of SMARCA2; host or cells: HeLa (CRISPR/Cas9 HiBiT knock-in); conditions: Hela SMARCA2-HiBiT cells, 24 hours treatment; for DC50: read-out: SMARC A2 Hela HiBit DC50; for Dmax: read-out: SMARC A2 Hela HiBit Dmax (%);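 as to SMARC A2 Hela HiBit Dmax (%): 24 h compound treatment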
Summary of the method: as §1, with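 “SMARCA2” for “SMARCA4”, “CS302365)” for “CS3023225)”, “treatment,” for “compound exposure,”, “with” for “using”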

[4] = read-out: SMARC A4 Hela HiBit Dmax
[5] = read-out: SMARC A4 Hela HiBit Dmax(%)

Sequence of SMARCA2 (P51531 whole entry): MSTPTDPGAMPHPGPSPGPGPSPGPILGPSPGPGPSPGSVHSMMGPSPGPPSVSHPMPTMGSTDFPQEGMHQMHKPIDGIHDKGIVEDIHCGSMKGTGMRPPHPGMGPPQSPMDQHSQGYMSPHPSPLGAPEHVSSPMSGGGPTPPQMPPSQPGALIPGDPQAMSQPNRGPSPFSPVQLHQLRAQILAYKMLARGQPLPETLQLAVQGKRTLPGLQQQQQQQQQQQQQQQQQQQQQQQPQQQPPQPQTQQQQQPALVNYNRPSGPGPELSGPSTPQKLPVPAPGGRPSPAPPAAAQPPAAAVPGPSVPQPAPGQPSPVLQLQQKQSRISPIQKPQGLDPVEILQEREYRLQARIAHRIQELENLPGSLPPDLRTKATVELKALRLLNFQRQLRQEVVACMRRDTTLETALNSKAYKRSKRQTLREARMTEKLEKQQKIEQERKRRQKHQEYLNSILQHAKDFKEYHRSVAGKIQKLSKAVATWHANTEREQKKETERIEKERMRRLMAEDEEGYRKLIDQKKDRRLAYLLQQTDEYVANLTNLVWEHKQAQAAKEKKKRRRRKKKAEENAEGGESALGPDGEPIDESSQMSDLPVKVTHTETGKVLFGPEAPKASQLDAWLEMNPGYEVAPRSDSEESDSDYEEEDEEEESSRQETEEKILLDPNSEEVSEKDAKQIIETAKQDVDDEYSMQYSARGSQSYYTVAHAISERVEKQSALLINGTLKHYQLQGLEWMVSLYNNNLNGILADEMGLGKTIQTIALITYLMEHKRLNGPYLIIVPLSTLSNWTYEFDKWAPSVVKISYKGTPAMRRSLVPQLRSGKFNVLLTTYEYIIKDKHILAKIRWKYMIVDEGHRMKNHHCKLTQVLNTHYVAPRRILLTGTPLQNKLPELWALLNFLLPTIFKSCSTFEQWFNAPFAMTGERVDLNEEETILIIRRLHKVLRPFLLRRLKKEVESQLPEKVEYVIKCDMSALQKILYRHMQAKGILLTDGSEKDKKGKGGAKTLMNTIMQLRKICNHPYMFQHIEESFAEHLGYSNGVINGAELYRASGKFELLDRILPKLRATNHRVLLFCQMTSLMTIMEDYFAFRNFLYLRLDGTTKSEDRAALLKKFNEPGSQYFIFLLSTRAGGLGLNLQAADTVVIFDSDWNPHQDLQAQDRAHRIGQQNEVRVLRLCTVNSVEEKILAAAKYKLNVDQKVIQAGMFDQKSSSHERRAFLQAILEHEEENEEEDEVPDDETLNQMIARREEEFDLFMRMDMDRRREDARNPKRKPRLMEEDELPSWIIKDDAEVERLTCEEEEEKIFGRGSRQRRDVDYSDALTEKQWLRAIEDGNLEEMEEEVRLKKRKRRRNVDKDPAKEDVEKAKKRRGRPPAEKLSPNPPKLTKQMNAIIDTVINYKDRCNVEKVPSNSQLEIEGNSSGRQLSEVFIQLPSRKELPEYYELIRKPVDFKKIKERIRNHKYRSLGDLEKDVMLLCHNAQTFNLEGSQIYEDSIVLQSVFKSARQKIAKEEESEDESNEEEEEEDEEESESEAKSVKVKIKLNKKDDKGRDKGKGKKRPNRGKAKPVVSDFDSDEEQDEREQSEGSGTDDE
Sequence of SMARCA4 (P51532 whole entry, the tested form may be a part): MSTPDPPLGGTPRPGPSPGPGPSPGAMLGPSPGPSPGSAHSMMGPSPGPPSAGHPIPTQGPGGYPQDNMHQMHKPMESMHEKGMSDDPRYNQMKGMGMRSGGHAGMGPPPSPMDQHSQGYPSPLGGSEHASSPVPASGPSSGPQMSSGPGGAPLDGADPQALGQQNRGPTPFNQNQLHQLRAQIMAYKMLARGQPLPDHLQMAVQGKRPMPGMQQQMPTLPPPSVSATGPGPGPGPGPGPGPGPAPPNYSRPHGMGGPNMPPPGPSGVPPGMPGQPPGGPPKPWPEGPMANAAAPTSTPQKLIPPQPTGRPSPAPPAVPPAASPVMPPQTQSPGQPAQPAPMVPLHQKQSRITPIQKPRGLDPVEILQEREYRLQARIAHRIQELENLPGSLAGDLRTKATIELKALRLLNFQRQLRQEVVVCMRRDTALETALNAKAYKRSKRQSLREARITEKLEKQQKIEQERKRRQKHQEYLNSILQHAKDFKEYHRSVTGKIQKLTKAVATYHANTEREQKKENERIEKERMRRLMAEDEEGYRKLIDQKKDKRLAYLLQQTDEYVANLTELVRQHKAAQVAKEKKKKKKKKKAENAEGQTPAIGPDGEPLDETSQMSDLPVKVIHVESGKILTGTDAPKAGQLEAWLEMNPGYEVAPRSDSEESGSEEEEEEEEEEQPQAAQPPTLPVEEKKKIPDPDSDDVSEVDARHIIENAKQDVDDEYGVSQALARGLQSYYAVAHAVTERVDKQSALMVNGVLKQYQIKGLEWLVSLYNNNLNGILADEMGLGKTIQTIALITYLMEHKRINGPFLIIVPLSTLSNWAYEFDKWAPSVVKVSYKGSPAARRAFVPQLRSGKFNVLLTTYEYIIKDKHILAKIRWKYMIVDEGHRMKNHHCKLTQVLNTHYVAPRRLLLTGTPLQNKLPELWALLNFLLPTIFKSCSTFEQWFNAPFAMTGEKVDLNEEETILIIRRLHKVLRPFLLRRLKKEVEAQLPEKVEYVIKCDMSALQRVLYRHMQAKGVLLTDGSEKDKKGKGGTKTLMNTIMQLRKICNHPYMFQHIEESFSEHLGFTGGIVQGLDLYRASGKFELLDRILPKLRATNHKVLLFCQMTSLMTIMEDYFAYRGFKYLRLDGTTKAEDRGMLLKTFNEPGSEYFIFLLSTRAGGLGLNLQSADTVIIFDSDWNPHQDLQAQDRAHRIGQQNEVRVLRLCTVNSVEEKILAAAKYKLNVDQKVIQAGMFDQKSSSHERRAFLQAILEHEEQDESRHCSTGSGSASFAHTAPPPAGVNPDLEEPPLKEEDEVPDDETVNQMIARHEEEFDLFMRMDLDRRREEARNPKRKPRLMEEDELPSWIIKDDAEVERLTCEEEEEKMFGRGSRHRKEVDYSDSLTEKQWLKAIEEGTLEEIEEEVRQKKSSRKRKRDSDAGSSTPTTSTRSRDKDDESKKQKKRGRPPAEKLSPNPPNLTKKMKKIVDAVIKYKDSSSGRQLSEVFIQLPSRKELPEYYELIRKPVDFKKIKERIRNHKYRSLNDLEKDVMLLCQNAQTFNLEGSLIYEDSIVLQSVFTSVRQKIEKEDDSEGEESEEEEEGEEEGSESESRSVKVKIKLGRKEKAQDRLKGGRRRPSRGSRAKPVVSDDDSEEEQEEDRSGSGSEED

O=C(/C=C/N1C[C@H]2C[C@@H]1CN2c1ccccn1)c1ccccc1O [PFI-3]
antiproliferative phenotype [1]: fail to display an antiproliferative phenotype

COC(=O)C1CN(C[C@H](NC(=O)[C@@H]2C[C@@H](O)CN2C(=O)[C@@H](n2cc([C@H]3CC[C@H](CN4CCC(c5ccc6c(c5)-n5c(nc(=O)c7c(Cl)cccc75)C65CCCCC5)CC4)CC3)nn2)C(C)(C)C)c2ccc(-c3scnc3C)cc2)C1 [Compound A154, methyl 1-((R)-2-((2S,4R)-1-((S)-2-(4-((1r,4S)-4-((4-(4′-chloro-5′-oxo-5′H-spiro[cyclohexane-1,7′-indolo[1,2-a]quinazolin]-10′-yl)piperidin-1-yl)methyl)cyclohexyl)-1H-1,2,3-triazol-1-yl)-3,3-dimethylbutanoyl)-4-hydroxypyrrolidine-2-carboxamido)-2-(4-(4-methylthiazol-5-yl)phenyl)ethyl) azetidine-3-carboxylate]
DC50 [2]: > 1000 nM | Dmax [2, 4]: < 50% | DC50 [3]: < 10 nM | Dmax [3]: > 90%

Cc1ncsc1-c1ccc([C@H](CN2CCOCC2)NC(=O)[C@@H]2C[C@@H](O)CN2C(=O)[C@H](C2CCCCC2)n2cc([C@H]3CC[C@H](CN4CCC[C@H](c5ccc6c(c5)-n5c(nc(=O)c7c(Cl)cccc75)C65CCCCC5)C4)CC3)nn2)cc1 [Compound A131, (2S,4R)-1-((2S)-2-(4-((1r,4S)-4-((3-(4′-chloro-5′-oxo-5′H-spiro[cyclohexane-1,7′-indolo[1,2-a]quinazolin]-10′-yl)piperidin-1-yl)methyl)cyclohexyl)-1H-1,2,3-triazol-1-yl)-2-cyclohexylacetyl)-4-hydroxy-N—((R)-1-(4-(4-methylthiazol-5-yl)phenyl)-2-morpholinoethyl)pyrrolidine-2-carboxamide]
DC50 [2]: > 1000 nM | Dmax [2, 4]: < 50% | DC50 [3]: 10 to 100 nM | Dmax [3]: 70 to 90%

Cc1ncsc1-c1ccc([C@H](CN2CCOCC2)NC(=O)[C@@H]2C[C@@H](O)CN2C(=O)[C@@H](n2cc([C@H]3CC[C@H](CN4CCC(c5ncc6c(n5)-n5c(nc(=O)c7c(Br)cccc75)C65CCCCC5)CC4)CC3)nn2)C(C)(C)C)cc1 [Compound A32, (2S,4R)-1-((S)-2-(4-((1r,4S)-4-((4-(4′-bromo-5′-oxo-5′H-spiro[cyclohexane-1,7′-pyrimido[5′,4′: 4,5]pyrrolo[1,2-a]quinazolin]-10′-yl)piperidin-1-yl)methyl)cyclohexyl)-1H-1,2,3-triazol-1-yl)-3,3-dimethylbutanoyl)-4-hydroxy-N—((R)-1-(4-(4-methylthiazol-5-yl)phenyl)-2-morpholinoethyl)pyrrolidine-2-carboxamide]
DC50 [2]: > 1000 nM | Dmax [2, 5]: 70 to 90% | DC50 [3]: > 1000 nM | Dmax [3]: < 50%

Cc1ncsc1-c1ccc([C@H](CN2CCOCC2)NC(=O)[C@@H]2C[C@@H](O)CN2C(=O)[C@@H](NC(=O)[C@H]2CC[C@H](CN3CCC(c4ccc5c(c4)C4(CCCCC4)c4nc(=O)c6c(Br)cccc6n4-5)CC3)CC2)C(C)(C)C)cc1 [Compound A16, (2S,4R)-1-((S)-2-((1r,4S)-4-((4-(4′-bromo-5′-oxo-5′H-spiro[cyclohexane-1,7′-indolo[1,2-a]quinazolin]-9′-yl)piperidin-1-yl)methyl)cyclohexane-1-carboxamido)-3,3-dimethylbutanoyl)-4-hydroxy-N—((R)-1-(4-(4-methylthiazol-5-yl)phenyl)-2-morpholinoethyl)pyrrolidine-2-carboxamide]
DC50 [2]: 501 to 1000 nM | Dmax [2, 5]: 50 to 69% | DC50 [3]: < 100 nM | Dmax [3]: > 90%
